Results taken from patent US20260023068A1, “USE OF A FBXO42 SPECIFIC INHIBITOR IN TREATING NOTCH SIGNALING-DEPENDENT DISEASE” (WESTLAKE UNIVERSITY, priority 2022, published 2026).

What was measured:
[1] = test system: global protein ubiquitination; assay: Global mass spectrometry-based analysis of protein ubiquitination; type: cell-based; details: global ubiquitination changes upon MLN4924 treatment (FIGS. 5E and 5F)
Protocol: (A) Endogenous RBPJ ubiquitination was measured under FBXO42 overexpression after immunoprecipitation with antibody against RBPJ and immunoblotted for Ub. Five percent lysate was used as the input control. (B) cSFB-RBPJ, hemagglutinin-ubiquitin (HA-Ub) and Myc-FBXO42 WT or AK mutant were cotransfected into HEK293T cells as indicated and treated with MG132 for 4 h. The cell lysates were incubated with S beads and analyzed by western blotting for RBPJ polyubiquitination detection. (C) Peptide sequence with ubiquitination modification identified in WT and FBXO42 KO cells. (D) HEK293T cells were cotransfected with Myc-FBXO42, HA-Ub WT along with cSFB-RBPJ WT or its lysine mutants as indicated. The cell lysates were incubated with S beads and analyzed by western blotting for RBPJ polyubiquitination detection. (E) Summary of identified peptides in global ubiquitination analysis upon MLN4924 treatment or FBXO42 depletion. (F) Percentage of ubiquitinated peptides among different groups. (G and H) Gene Ontology analysis of these proteins with differential ubiquitination modification. (I and J) Venn diagram showing the overlap between identified differential proteins with reported Notch interactors.
Global protein ubiquitination analysis was performed according to the manufacture's guidance (5562, CST). […]

JURKAT xenograft = type: in vivo; details: 30 mg/kg subcutaneously twice daily for 21 days, BALB/c nude mice (FIG. 13S-V)
Protocol: (A-H) Xenograft tumor growth studies were performed with WT or FBXO42-KO JURKAT (A-D) and HSB2 (E-H) cells. Mice were euthanized 4 weeks after tumor cell injection. The tumors were excised, photographed, and weighed. The volumes (B and F) and weights (C and G) of the tumors were measured, respectively. The mRNA levels of Notch target genes in tumors were determined by qPCR, respectively (D and H). (I-K) In vivo leukemia mouse model was established by injecting WT and FBXO42-KO JURKAT cells carrying GFP into NSG mice intravenously. The percentage of GFP^+ leukemia cells in peripheral blood was measured weekly by flow cytometry analysis (I) and summarized (K). […] (L-O) Spleens in mice from different groups were excised, a representative image is shown (L), and the spleen weight was measured (M). Tumor cell invasion was evaluated by measuring GFP intensity by fluorescence microscopy (N) and hemoxylin and eosin staining (O). […] The volumes (S) and weights (T) of the tumors and mouse weight (U) were measured. (A-O, S-V, n=5, P-R, n=10) Quantitative data are presented as mean±SEM. P values were calculated using two-tailed Student's t-tests. *P<0.05, **P<0.01, NS, not significant.
For the evaluation of MLN4924 efficacy in vivo, 6- to 8-week-old female BALB/c nude mice were inoculated with 5×10^6 JURKAT cells subcutaneously in the right flank, and tumor growth was monitored with caliper measurements. […]

[2] = test system: Notch target genes in JURKAT and HSB2 cells; assay: qPCR of Notch target genes in leukemia cells; type: cell-based, human; details: JURKAT and HSB2, qPCR (FIGS. 12M and 12N)
Protocol: FBXO42-KO cells were rescued with WT FBXO42 or F-box deletion mutant and were used in the following studies. (A-C) The mRNA levels of Notch target genes in the treated HEK293T (A), JURKAT (B) and HSB2 (C) cells were determined by qPCR. (D-G) The invasion abilities of the treated JURKAT (D) and HSB2 (F) cells were evaluated using a 3D culture system with Matrigel. Scale bars, 50 μm. The respective average diameter of the spheres in D and F was summarized, respectively (E and G). (H-K) Anchorage-independent growth of the rescued JURKAT (H) and HSB2 (J) cells was measured using a soft agar colony formation assay. The number of colonies in H and J was counted and summarized, respectively (I and K). (L) JURKAT and HSB2 cells were treated with MLN4924 in a concentration-gradient manner for 36 h and then evaluated for the cell viability using cell counting kit-8 assay. (M and N) The expression of Notch target genes in MLN4924-treated JURKAT (M) and HSB2 (N) cells were determined by qPCR. (O-R) Anchorage-independent growth of MLN4924-treated JURKAT (0) and HSB2 (Q) cells was measured using soft agar colony formation assays. The number of colonies was counted and summarized (P and R). (A-R, n=3) The data are shown as the mean±SEM from the independent experiments. P values were calculated using one-way ANOVA for multiple comparisons or two-tailed Student's t-tests. *P<0.05, ** P<0.01, *** P<0.001. […]

SMILES: NS(=O)(=O)OC[C@@H]1C[C@@H](n2ccc3c(N[C@H]4CCc5ccccc54)ncnc32)C[C@@H]1O [MLN4924]
- percentage of ubiquitinated peptides [1]: decreased
- leukemia burden in vivo (tumor growth rate) (JURKAT xenograft): reduced
- Notch target gene expression of leukemia cells [2]: diminished
